Source: patent US20130288897A1, “SYNERGISTIC PESTICIDAL COMPOSITIONS” (Dow AgroSciences LLC, priority 2012, published 2013)
Several values for one entry are separate records, joined by “and”; a condition that tells them apart may be missing. Equal entries are not always repeated.

Tested on: cotton aphid (CA) Aphis gossypii
Assay: Cotton aphid track-sprayer test on cotton: Compound A or imidacloprid with Glyphomax Plus (glyphosate) and AMS (Example XV)
Format: in vivo
Description: Glyphosate resistant cotton plants (Gossypium hirsutum, cv ‘DP493’) were trimmed to 1 true leaf and infested with mixed stages of cotton aphid (CA) Aphis gossypii 24 h prior to application. Mixed developmental stage CA were infested onto the upper surface of each treated leaf by transferring infested foliage from an insectary colony. Each plant was infested with approximately equal numbers of CA based on visual estimation of aphid density on the infested material. Infested plants were held in the growth chamber (L:D 16:8 and 25° C.). Glyphosate (Glyphomax Plus, Dow AgroSciences, LLC, Indianapolis, Ind.) was mixed with water at a rate equivalent to 32 oz/Ac/20 gallons. […] High rate Compound A concentrations were created by diluting Compound A technical material with acetone to achieve a 10 ppm solution. […] When applied through a track sprayer calibrated to 200 L/Ha these concentrations generated use rates of 0.2, 0.04 and 0.008 g/Ha. […] Nozzle height above the canopy was held constant at ca. 30 cm. Plants were evaluated after 3 days from the time of infestation by counting all live cotton aphids on each plant.
For the purposes of this experiment, the compositions having lower rates of the insecticide were not analyzed. Percent control for all treatments was calculated using the rep average for the untreated plants. […] For all tests, measured efficacy (% Control) data were compared to calculated Colby values (Colby, S. R. 1967. Calculating Synergistic and Antagonistic Responses of Herbicide Combinations. Weeds 15:20-22) using a 2 sided T-test (Minitab). […] The formula used to calculate the Colby value for mixtures of Compound A and either herbicide or AMS was:
The formula was adapted for compositions including Compound A, herbicide and AMS as follows: […]

[1] = 0.2 g insecticide/Ha with Glyphomax Plus 0.0125 ml/ml + AMS 18 mg/ml, Rep 1-5
[2] = 0.2 g insecticide/Ha with Glyphomax Plus 0.0125 ml/ml, Rep 1-5

For `O=[N+]([O-])NC1=NCCN1Cc1ccc(Cl)nc1` [Imidacloprid, imidacloprid, reference compound], the “synergy assessment (measured control vs Colby values)” value (insecticide with AMS and herbicide (Glyphomax Plus)) was “not improved compared to imidacloprid alone” and the “synergy assessment (measured control vs Colby values)” value (insecticide with the herbicide (Glyphomax Plus)) was “not present”.
For `CC(c1ccc(C(F)(F)F)nc1)S(C)(=O)=NC#N` (stereo not shown) [Compound A, [1-(6-Trifluoromethylpyridin-3-yl)ethyl](methyl)-oxido-λ^4-sulfanylidenecyanamide], the “% control Negatives to zero” value [1] was 94.9% and 100.0%, the “Calculated Colby values” [1] was 71.7 and 78.5 and 75.1 and 77.5 and 71.8 and the percent control [1] was 100.0% and 94.9%. For the same compound, the “% control Negatives to zero” value [2] was 96.2% and 100.0% and 91.7% and 98.1%, the percent control [2] was 100.0% and 91.7% and 98.1% and 96.2% and the “Calculated Colby values” (0.2 g insecticide/Ha with Glyphomax Plus 0.0125 ml/ml, Rep 1-5, expected additive control) was 71.7 and 78.5 and 75.1 and 75.3 and 69.3. For the same compound, the “CA Counts” value (0.2 g insecticide/Ha, no herbicide, no AMS, Rep 1-5, live aphids per plant after 3 days) was 24 and 20 and 12 and 15 and 13 and the percent control (0.2 g insecticide/Ha, no herbicide, no AMS, Rep 1-5, vs rep average of untreated plants) was 71.7% and 78.5% and 75.1% and 75.3% and 69.3%.
